From patent US20120225123A1, “Use of Synergistic Combinations of an Avermectin and an Antineoplastic Compounds for the Treatment of Hematological Malignancies” (UNIVERSITY HEALTH NETWORK, priority 2009, published 2012)

Experiments:
[1] = tested on: OCI-AML2 cells; assay: Intracellular chloride (SPQ) and cell size (forward light scatter), OCI-AML2; assay type: cell-based, human
Experimental: Intracellular chloride concentration was measured using a fluorescent indicator for chloride, SPQ as previously described.^16 Upon binding halide ions like chloride, SPQ is quenched resulting in a decrease in fluorescence without a shift in wavelength. […] After 15 minutes of incubation with SPQ, cells were diluted 15:1 in HBSS and centrifuged. The supernatant was removed, cells were resuspended in 200 μl of fresh HBSS and incubated for 15 minutes in 37° C. to allow recovery from the hypotonic shock. Cells were then stained with propidium iodide and SPQ fluorescence in the PI negative cells was determined using an LSR-II flow cytometer (Beckton Dickonson, San Jose, Calif.) (excitation 351 nm, emission 485 nm). In parallel, changes in cell size were determined by measuring forward light scatter by flow cytometry. Results were analyzed with FlowJo version 8.8 (TreeStar, Ashland, Oreg.).

[2] = tested on: normal hematopoetic cells; assay: Clonogenic (methylcellulose colony forming) assay, normal cells; assay type: cell-based, human; settings: ivermectin 6 μM, n=3
Experimental: To assess clonogenic growth, primary AML cells or granulocyte colony-stimulating factor (G-CSF) mobilized PBSCs (4×10^5/mL) were treated with IVM or buffer control for 24 hours. After treatment, cells were washed and 10^5 cell/mL were plated in duplicate in MethoCult GF H4434 medium (StemCell Technologies, Vancouver, BC) containing 1% methycellulose in IMDM, 30% FCS, 1% bovine serum albumin, 3 U/mL of recombinant human erythropoietin, 10^−4 M of 2-mercaptoethanol, 2 mM of L-glutamine, 50 ng/mL of recombinant human stem cell factor, 10 ng/mL of GM-CSF, and 10 ng/mL of rh IL-3. Alternatively, primary cells were plated directly into MethoCult GF H4434 medium with ivermectin. Seven days (AML samples) or 14 days (normal PBCS) after plating, the number of colonies containing 10 or more cells for AML or over 100 cells for normal samples was counted as previously described.^14
Ivermectin was also evaluated in clonogenic assays in primary normal hematopoietic and AML cells. Ivermectin (6 μM) had minimal effects on the clonogenic growth of normal hematopoetic cells (n=3) with <15% reduction in clonogenic growth. In contrast, ivermectin reduced clonogenic growth by ≧40% in 3/6 primary AML samples (FIG. 1D). Similar effects were noted when primary cells were directly plated into clonogenic assays with ivermectin (FIG. 1G).

ivermectin
intracellular chloride, SPQ fluorescence ([1]; 10 μM IVM, 2 hours): decreased SPQ fluorescence | cell size ([1]; 2 hours of treatment, flow cytometry): caused an increase in cell size | reduction in clonogenic growth [2]: < 15%
